In brackets after ≈: the same amount, converted by molar mass.
Assay: Aqueous solubility of talnetant
Type: physicochemical
Details: aqueous medium
Description: Talnetant has low aqueous solubility (approximately 0.03 mg/ml at pH 1 and 0.001 mg/ml, at pH 7.0). Typically drugs with low aqueous solubility are absorbed slowly across the walls of the gastrointestinal tract (GIT) due to poor dissolution of the solid in the GIT leading to a small diffusive driving force.

- solubility (aqueous buffer, pH 7.0): ~1 µg/mL (≈ 2.61 µM)
- solubility (pH 1, simulated gastric fluid): ~30 µg/mL (≈ 78.4 µM)
SMILES: CC[C@H](NC(=O)c1c(O)c(-c2ccccc2)nc2ccccc12)c1ccccc1 [Talnetant, (S)-(−)-N-(α-ethylbenzyl)-3-hydroxy-2-phenylquinoline-4-carboxamide]

— patent US20080255193A1, “Pharmaceutical Composition” (priority 2005, published 2008)
